Measured values: US20170000749A1, “Methods for Treating Cognitive Disorders Using Inhibitors of Histone Deacetylase” (Forum Pharmaceuticals, Inc., priority 2008, published 2017)
Like-named read-outs stand apart in the source and are kept apart here.

Assays:
[1] = biological target: one or more of HDAC-1, HDAC-2, HDAC-3, HDAC-4, HDAC-5, HDAC-6, HDAC-7, HDAC-8, HDAC-9, HDAC-10 and HDAC-11; test: Inhibition of Histone Deacetylase Enzymatic Activity (Boc-Lys(Ac)-AMC substrate, Fluor-de-Lys developer); assay type: biochemical; conditions: read-out: HDAC Inhibition (IC50 μM) HDAC Enzyme
Experimental: The following protocol is used to assay the compounds of the disclosure.
The mixture is pre-incubated for 5 minutes at room temperature. The reaction is started by bringing the temperature to 37° C. and adding 16 μl substrate. Total reaction volume is 50 μl.
In the Tables 8, 9 and 10, A≦0.05 μM; 0.05 μM<B≦0.1 μM; 0.1 μM<C≦1 μM; and 1 μM<D≦10 μM.

[2] = system: HDAC activity in primary mouse cortical cultures; test: Whole-Cell Histone Deacetylase (HDAC) Inhibition Assay in Primary Mouse Cortical Cultures; assay type: cell-based
Experimental: Primary neocortical cultures are established through the dissection of the neocortex from E17 embryos harvested from time-pregnant Balb/C mice. Following dissection, the neocortical tissue specimens undergo digestion by incubation at 37° C. for 10 minutes in dissection medium (1×HBSS/10 mM HEPES/1 mM Sodium Pyruvate) supplemented with (0.25%) Trypsin and (0.1%) DNase I. Digested tissue is washed and resuspended in plating medium (NeuroBasal/10% HS/0.5 mM L-Glutamine (Invitrogen Corporation)) for trituration. Additional plating medium is added, and the contents are passed over a 70 um cell-strainer. The cell-density is quantified using a hemacytometer, and dilutions are made to allow for the plating of 50000 cells/well/100 uL in 96-well PDL-coated plates. Plates are incubated for 4-5 hours in 37° C./5% CO2-incubator, after which time the entire volume is exchanged to feeding medium (NeuroBasal/2% B-27 Serum-free supplement/0.5 mM L-Glutamine/1% Penicillin-Streptomycin (Invitrogen Corporation)). The cultures undergo two 50% fresh feeding medium exchanges at 3 days in vitro (DIV3), and again at DIV7.
Compounds for testing are resuspended in dimethyl sulphoxide (DMSO), and further diluted in DMSO for a ten-point dose-response curve, with appropriate controls. Each master plate is assayed in triplicate. […] Three DIV9 culture plates are leveled to 50 uL/well, onto which each has overlaid 50 uL/well of the diluted daughter plate. The plates are returned to the 37° C./5% CO2-incubator for 16-18 hours.
The next step of the assay involves the exposure of a HDAC colorimetric substrate, comprising an acetylated lysine side chain, to the compound-treated neuronal cultures. Based on the ability of the compound to inhibit HDAC activity in the neuronal cultures, the substrate is deacetylated by HDACs, and subsequently sensitized. […] Compound-incubated culture plates are again leveled to 50 uL/well and 2 uL/well of 7.5 mM BOC-Lys (Ac)-AMC substrate is added and thoroughly mixed. Plates are returned to the 37° C./5% CO2-incubator for 1 hour.
The final addition to the culture plates entails treatment with a Fluor de Lys™-based developer (BIOMOL Research Laboratories, Inc.) to produce a fluorophore, which is analyzed using a spectrophotometer. The developer solution (1×Fluor de Lys™/1% NP-40/1 uM TSA in HDAC Buffer Solution) is prepared, and 50 uL/well is added to each of the wells of the culture plates. […] The plates are returned to the 37° C./5% CO2-incubator for 10-15 minutes, after which time, they are removed and set in the dark at room temperature for 5-10 minutes.
Primary neocortical cultures were established through the dissection of the neocortex from E17 embryos harvested from time-pregnant Balb/C mice. Following dissection, the neocortical tissue specimens underwent digestion by incubation at 37° C. for 10 minutes in dissection medium (1×HBSS/10 mM HEPES/1 mM Sodium Pyruvate) supplemented with (0.25%) Trypsin and (0.1%) DNase I. Digested tissue was washed and resuspended in plating medium (NeuroBasal/10% HS/0.5 mM L-Glutamine (Invitrogen Corporation)) for trituration. Additional plating medium was added, and the contents passed over a 70 um cell-strainer. The cell-density was quantified using a hemacytometer, and dilutions made to allow for the plating of 50000 cells/well/100 uL in 96-well PDL-coated plates. Plates were incubated for 4-5 hours in 37° C./5% CO2-incubator, after which time the entire volume was exchanged to feeding medium (NeuroBasal/2% B-27 Serum-free supplement/0.5 mM L-Glutamine/l % Penicillin-Streptomycin (Invitrogen Corporation)). The cultures underwent two 50% fresh feeding medium exchanges at 3 days in vitro (DIV3), and again at DIV7.
Compounds for testing were resuspended in dimethyl sulphoxide (DMSO), and further diluted in DMSO for a ten-point dose-response curve, with appropriate controls. Each master plate was assayed in triplicate.

[3] = whole-cell (WC), mouse cortical neurons, Table 8, read-out: HDAC Inhibition (IC50 μM) WC mouse cortical neurons
[4] = whole-cell (WC), mouse cortical neurons, Table 10, read-out: HDAC Inhibition (IC50 μM) WC mouse cortical neurons
[5] = whole-cell (WC), mouse cortical neurons, Table 9, read-out: HDAC Inhibition (IC50 μM) WC mouse cortical neurons

Row | Compound | IC50 ([1]; Table 10) [µM] | IC50 ([1]; Table 9) [µM] | IC50 [2, 5] [µM] | further results
1 | CC(C)N1c2ccccc2N=C(c2ccc(C(=O)NO)cc2)c2cccnc21 [(Z)-N-hydroxy-4-(11-isopropyl-11H-benzo[b]pyrido[2,3-e][1,4]diazepin-5-yl)benzamide] |  |  |  | IC50 ([1]; Table 8): < 0.05 µM; IC50 [2, 3]: < 1 µM
2 | O=C(/C=C/c1ccc(CN2C(=O)c3cccnc3N(C3CC3)c3ccccc32)cc1)NO [(E)-3-(4-((11-cyclopropyl-5-oxo-5H-benzo[b]pyrido[2,3-e][1,4]diazepin-6(11H)-yl)methyl)phenyl)-N-hydroxyacrylamide] | < 0.05 |  |  | IC50 [2, 4]: < 1 µM
3 | CS(=O)(=O)c1cccc2c1Oc1ccccc1N=C2c1ccc(C(=O)NO)cc1 [(Z)—N-hydroxy-4-(4-(methylsulfonyl)dibenzo[b,f][1,4]oxazepin-11-yl)benzamide] |  |  |  | IC50 ([1]; Table 8): < 0.05 µM; IC50 [2, 3]: 1 to 5 µM
4 | O=C(NO)c1cnc(N2C[C@@H]3C[C@H]2CN3c2nccc(C(F)(F)F)n2)nc1 [N-hydroxy-2-((1S,4S)-5-(4-(trifluoromethyl)pyrimidin-2-yl)-2,5-diazabicyclo[2.2.1]heptan-2-yl)pyrimidine-5-carboxamide] |  | < 0.05 | < 1 | 
5 | O=C(NO)c1cnc(N2C[C@@H]3C[C@H]2CN3C(=O)OC2CCOCC2)nc1 [(1S,4S)-tetrahydro-2H-pyran-4-yl 5-(5-(hydroxycarbamoyl)pyrimidin-2-yl)-2,5-diazabicyclo[2.2.1]heptane-2-carboxylate] |  | < 0.05 | < 1 | 
6 | Cc1cccc2c1Oc1ccccc1N=C2c1ccc(C(=O)NO)cc1 [(Z)—N-hydroxy-4-(4-methyldibenzo[b,f][1,4]oxazepin-11-yl)benzamide] |  |  |  | IC50 ([1]; Table 8): 0.05 to 0.1 µM; IC50 [2, 3]: 1 to 5 µM
7 | O=C(CCCCCN1C(=O)c2cccnc2N(C2CC2)c2ccccc21)NO [6-(11-cyclopropyl-5-oxo-5H-benzo[b]pyrido[2,3-e][1,4]diazepin-6(11H)-yl)-N-hydroxyhexanamide] | 0.1 to 1 |  |  | IC50 [2, 4]: 1 to 5 µM
8 | O=C(NO)c1ccc(C2=Nc3ccccc3Oc3c(O)cccc32)cc1 [(Z)—N-hydroxy-4-(4-hydroxydibenzo[b,f][1,4]oxazepin-11-yl)benzamide] |  |  |  | IC50 ([1]; Table 8): 0.05 to 0.1 µM; IC50 [2, 3]: < 1 µM
9 | O=C(NO)c1cnc(N2C[C@@H]3C[C@H]2CN3c2cc(C(F)(F)F)cc(C(F)(F)F)c2)nc1 [2-((1S,4S)-5-(3,5-bis(trifluoromethyl)phenyl)-2,5-diazabicyclo[2.2.1]heptan-2-yl)-N-hydroxypyrimidine-5-carboxamide] |  | < 0.05 | 1 to 5 | 
10 | O=C(NO)c1cnc(N2C[C@@H]3C[C@H]2CN3c2cccc(C(F)(F)F)n2)nc1 [N-hydroxy-2-((1S,4S)-5-(6-(trifluoromethyl)pyridin-2-yl)-2,5-diazabicyclo[2.2.1]heptan-2-yl)pyrimidine-5-carboxamide] |  | < 0.05 | < 1 | 
11 | CC(C)OC(=O)N1C[C@@H]2C[C@H]1CN2c1ncc(C(=O)NO)cn1 [(1S,4S)-isopropyl 5-(5-(hydroxycarbamoyl)pyrimidin-2-yl)-2,5-diazabicyclo[2.2.1]heptane-2-carboxylate] |  | < 0.05 | < 1 | 
12 | O=C(NO)c1cnc(N2C[C@@H]3C[C@H]2CN3c2ccc(F)cc2)nc1 [2-((1S,4S)-5-(4-fluorophenyl)-2,5-diazabicyclo[2.2.1]heptan-2-yl)-N-hydroxypyrimidine-5-carboxamide] |  | 0.05 to 0.1 | < 1 | 
13 | O=C(NO)c1ccc(C2=Nc3ccccc3Oc3ccccc32)nc1 [(E)-6-(dibenzo[b,f][1,4]oxazepin-11-yl)-N-hydroxynicotinamide] |  |  |  | IC50 ([1]; Table 8): 0.1 to 1 µM; IC50 [2, 3]: 5 to 15 µM
14 | O=C(NO)c1cnc(N2C[C@@H]3C[C@H]2CN3)nc1 [2-((1S,4S)-2,5-diazabicyclo[2.2.1]heptan-2-yl)-N-hydroxypyrimidine-5-carboxamide] |  | 0.1 to 1 | 5 to 15 | 
15 | O=C(NO)c1ccc(C2=Nc3cccc(F)c3Oc3ccccc32)cc1 [(Z)-4-(6-fluorodibenzo[b,f][1,4]oxazepin-11-yl)-N-hydroxybenzamide] |  |  |  | IC50 ([1]; Table 8): 0.05 to 0.1 µM; IC50 [2, 3]: 5 to 15 µM
16 | O=C(NO)c1cnc(N2CCN(C3=Nc4ccccc4Oc4ccc(Cl)cc43)CC2)nc1 [(E)-2-(4-(2-chlorodibenzo[b,f][1,4]oxazepin-11-yl)piperazin-1-yl)-N-hydroxypyrimidine-5-carboxamide] |  |  |  | IC50 ([1]; Table 8): < 0.05 µM; IC50 [2, 3]: 5 to 15 µM
17 | O=C(/C=C/c1ccc(CN2C(=O)CN=C(c3ccccc3)c3ccccc32)cc1)NO [(E)-N-hydroxy-3-(4-(((Z)-2-oxo-5-phenyl-2,3-dihydro-1H-benzo[e][1,4]diazepin-1-yl)methyl)phenyl)acrylamide] | 0.05 to 0.1 |  |  | IC50 ([2]; read-out: HDAC Inhibition (IC50 μM) WC mouse cortical neurons, Table 10): 1 to 5 µM
18 | O=C(NO)c1cnc(N2C[C@@H]3C[C@H]2CN3c2ccc(C(F)(F)F)cc2)nc1 [N-hydroxy-2-((1S,4S)-5-(4-(trifluoromethyl)phenyl)-2,5-diazabicyclo[2.2.1]heptan-2-yl)pyrimidine-5-carboxamide] |  | < 0.05 | 1 to 5 | 
19 | O=C(NO)c1cnc(N2C[C@@H]3C[C@H]2CN3c2ccc3nonc3c2)nc1 [2-((1S,4S)-5-(benzo[c][1,2,5]oxadiazol-5-yl)-2,5-diazabicyclo[2.2.1]heptan-2-yl)-N-hydroxypyrimidine-5-carboxamide] |  | < 0.05 | < 1 | 

Now from value to compound, other results behind:

Row | IC50 ([1]; Table 10) [µM] | IC50 ([1]; Table 9) [µM] | IC50 [2, 5] [µM] | Compound | further results
20 | < 0.05 |  |  | O=C(CCCCCCOc1nc2ccccc2c2ccccc12)NO [N-hydroxy-7-(phenanthridin-6-yloxy)heptanamide] | IC50 [2, 4]: 5 to 15 µM
21 | 0.1 to 1 |  |  | O=C(CCCCCC(=O)NC1c2ccccc2C=Cc2ccccc21)NO | IC50 [2, 4]: 1 to 5 µM
22 | 0.1 to 1 |  |  | O=C(CCCCCCCON=C1c2ccccc2CCc2ccccc21)NO | IC50 [2, 4]: 1 to 5 µM
23 | 1 to 10 |  |  | O=C(CCCN1c2ccccc2C=Cc2ccccc21)NO [(Z)-4-(5H-dibenzo[b,f]azepin-5-yl)-N-hydroxybutanamide] | IC50 [2, 4]: 5 to 15 µM
24 | < 0.05 |  |  | O=C(NO)c1ccc(NC2c3ccccc3CCc3ccccc32)nc1 | IC50 [2, 4]: < 1 µM
25 |  | < 0.05 | < 1 | O=C(NO)c1cnc(N2C[C@@H]3C[C@H]2CN3c2cccc(OC(F)F)c2)nc1 [2-((1S,4S)-5-(3-(difluoromethoxy)phenyl)-2,5-diazabicyclo[2.2.1]heptan-2-yl)-N-hydroxypyrimidine-5-carboxamide] | 
26 |  | < 0.05 | < 1 | O=C(NO)c1cnc(N2C[C@@H]3C[C@H]2CN3C(=O)OCC2CC2)nc1 [(1S,4S)-cyclopropylmethyl 5-(5-(hydroxycarbamoyl)pyrimidin-2-yl)-2,5-diazabicyclo[2.2.1]heptane-2-carboxylate] | 
27 | < 0.05 |  |  | O=C(CCCCCN1c2ccccc2CCc2ccccc21)NO [6-(10,11-dihydro-5H-dibenzo[b,f]azepin-5-yl)-N-hydroxyhexanamide] | IC50 [2, 4]: 1 to 5 µM
